Source: patent US20080153827A1, “Method for the Treatment or Prevention of Cardiac Hypertrophy” (priority 2004, published 2008)

How the values were obtained:
Type in all cases: in vivo, rat
[1] = test system: Dahl salt-sensitive rats (SS/JrHsd) on high salt diet; assay: Echocardiography: interventricular septum (IVS) wall thickness; details: 3.5 weeks, FIG. 4
Procedure: 6-week-old male Dahl salt-sensitive rats (SS/JrHsd) received the following diet and drug regimens: Dahl salt-sensitive rats on low salt diet (1), on high salt diet (2), on high salt diet treated with 10 mg/l of levosimendan in drinking water (3), on high salt diet treated with 1 mg/l of levosimendan in drinking water (4) and on high salt diet treated with 0.5 mg/kg of the active metabolite (II) (OR-1896) of levosimendan in drinking water (5). High salt diet was produced by adding NaCl to commercial low salt diet. After 3.5 weeks transthoracic echocardiography was performed using a Toshiba Ultrasound System and a 15 MHz linear transducer under light isoflurane anesthesia. Using two-dimensional imaging, a short axis view of the left ventricle at the level of the papillary muscles was obtained and the two-dimensionally guided M-mode recording through the anterior and posterior walls of the left ventricle was obtained.

[2] = test system: Dahl salt-sensitive rats (SS/JrHsd) on high salt diet; assay: Heart weight/body weight ratio in Dahl salt-sensitive rats on high salt diet; details: both doses (10 mg/l and 1 mg/l in drinking water), 7 weeks, FIG. 1
Procedure: (§1) 6-week-old male Dahl salt-sensitive rats (SS/JrHsd) received the following diet and drug regimens for 7 weeks: 1) Dahl SS controls on high salt diet, 2) Dahl SS rats on high salt diet+high-dose levosimendan (10 mg/l of levosimendan in drinking water), 3) Dahl SS rats on high salt diet+low-dose levosimendan (1 mg/l of levosimendan in drinking water) and 4) Dahl SS controls on low salt diet. High salt diet was produced by adding NaCl to commercial low salt diet. The consumption of drinking water and food as well as the body weight and general health of the animals were monitored. Systolic blood pressure was measured by using a tail cuff blood pressure at week 3.5 and week 7. At the end the study the hearts was excised, washed with ice-cold saline, blotted dry and weighed.

[3] = test system: Dahl salt-sensitive rats (SS/JrHsd) on high salt diet; assay: Systolic blood pressure by tail cuff in Dahl salt-sensitive rats; details: data not shown
Procedure: as §1

[4] = test system: Myocardial SERCA2 and NCX expressions; assay: Myocardial SERCA2/NCX protein ratio by Western blot; details: both doses (10 mg/l and 1 mg/l in drinking water), 7 weeks, high salt diet; FIG. 2
Procedure: as §1
Myocardial SERCA2 and NCX expressions were determined by Western blot analysis using standard procedure. Myocardial samples were homogenized in extraction buffer and protease inhibitor. Myocardial samples (15 μg protein per lane) were electrophoretically separated by SDS-PAGE (8% Acryl amide). The proteins were transferred to a PVDF membrane by semi-dry blotting in electrophoresis device. […] The films were scanned in a densitometer and a semi-quantitative measurement of the relative intensity of each protein band was performed using the “GeneSnap”-software program.

[5] = test system: atrial natriuretic peptide (ANP) mRNA; assay: Myocardial atrial natriuretic peptide (ANP) mRNA expression by quantitative real time PCR; details: high dose (10 mg/l in drinking water), 7 weeks, high salt diet; FIG. 3
Procedure: as §1, with “At the end the study the hearts was excised, washed with ice-cold saline, blotted dry and weighed.” left out
Total RNA from the rat hearts were collected, treated with DNAse 1 and reverse transcribed to cDNA by incubation of 50 min in 45° C. with presence of reverse transcription enzyme (Enhanced avian HS RT-PCR kit, Sigma Chemicals Co.). 1 μl of cDNA was subjected to a quantitative real time polymerase chain reaction by Lightcycler instrument (Roche Diagnostics) for detection of ANP and GAPDH mRNAs. […] After amplification the quality of PCR products were analyzed with the melting step consisting of heating to 95° C., cooling to annealing temperature for 15 seconds, and finally a slow rise in temperature to 95° C. with a continuous acquisition of fluorescence decline. […]

SMILES	Interventricular septum (IVS) wall thickness ([1]; 0.5 mg/kg in drinking water)	development of cardiac hypertrophy measured as heart weight-to-body weight-ratio [2]	blood pressure ([3]; high-dose (10 mg/l in drinking water))	blood pressure ([3]; low-dose (1 mg/l in drinking water))	myocardial SERCA2-to-NCX-ratio [4]	myocardial ANP mRNA expression [5]	Interventricular septum (IVS) wall thickness ([1]; 10 mg/l and 1 mg/l in drinking water)
CC(=O)Nc1ccc(C2=NNC(=O)C[C@H]2C)cc1 [active metabolite (II), (R)-N-[4-(1,4,5,6-tetrahydro-4-methyl-6-oxo-3-pyridazinyl)phenyl]acetamide]	significantly reduce the increased heart wall thickness	–	–	–	–	–	–
CC1CC(=O)NN=C1c1ccc(NN=C(C#N)C#N)cc1 (single isomer, unassigned; (-)) [Levosimendan, (−)-enantiomer of [[4-(1,4,5,6-tetrahydro-4-methyl-6-oxo-3-pyridazinyl)phenyl]hydrazono]propanedinitrile]	–	equally prevented the development of cardiac hypertrophy	produced a transient decrease in blood pressure	did not influence blood pressure	increased SERCA2-to-NCX-ratio in the heart	decrease ANP mRNA expression to levels found in low salt diet controls	significantly reduce the increased heart wall thickness
